US8293786B2 (Alltranz Inc., priority 2007, dated 2012)
“Also recorded” adds a separate entry of the source. Where a name gives a salt, the structure may show the parent alone.

Legend:
human abdominal skin [1] = experiment: In vitro human skin permeation and skin disposition, flow-through diffusion cells (Examples 2, 2A, 2B); type: in vitro ADME; conditions: for 24 h skin conc / 24 h cumulative amt / Flux / Lag time / Flux enhancement: 40% aqueous PEG 400 receiver fluid; for Flux enhancement: total cannabidiol versus cannabidiol
Experimental: Flow through diffusion cells were used for the permeation studies. HEPES-buffered Hanks' balanced salts containing 40% PEG 400 with gentamicin or 40% aqueous PEG 400 with gentamicin were used for the receiver compartment. Donor solution was comprised of 90:8:2 PG:H2O:IPM solution or gel formulation. […] Drug accumulation in the skin after a 24, 30 or 42 h diffusion experiment was determined as μmol/g wet tissue weight.
(§1) The skin samples used in the following experiments were obtained from abdominal reduction surgery and dermatomed to a thickness of approximately 200 μm. The skin samples used herein were frozen at −20° C. for less than six months.
(§2) One (1) L of receiver fluid was prepared by measuring 1 L of nanopure water into a graduated cylinder. 90% of the water was added to an Erlenmeyer flask. Hanks' salts (1 bottle) were added to the water along with 5.96 g of HEPES and 0.35 g of sodium bicarbonate. The pH of the solution was adjusted with 1 N sodium hydroxide solution to pH 7.4. The remaining water was added and the receiver fluid was filtered through a 0.2μ filter (Millipore, Billerica, Mass.). Fifty (50) mg of gentamicin was added to the filtered receiver fluid and 400 mL of the receiver fluid was removed and replaced with 400 mL of PEG 400.
The receiver fluid was prepared by measuring 600 mL of nanopure H2O into a graduated cylinder. The H2O was filtered through a 0.2μ filter (Millipore, Billerica, Mass.). Fifty (50) mg of gentamicin was added to the filtered H2O and 400 mL of PEG 400 was added.
The prodrugs were made up in a solution of 45:4:1 PG:H2O:IPM. For this solution, the appropriate amount of drug was weighed into a glass silanized culture tube and IPM was added, the 50 μL of PG to coat the drug, then an additional 247 μL PG was added and the donor solution was vortexed again. Finally 26 μL of water was added. The gel formulation resulted from the mixing of absolute ethanol, nanopure water, IPM, Carbopol® 980, 0.1 N sodium hydroxide solution and the respective drug.
The gel formulation was comprised of absolute ethanol, nanopure water, IPM, Carbopol® 980, 0.1 sodium hydroxide solution and respective drug. The anhydrous gel was comprised of absolute ethanol, PEG monoethyl ether 550, Klucel® hydroxypropylcellulose, and respective drug.
Dermatomed skin harvested from abdominoplasty, stored at −20° C., was used for the experiments. A PermeGear flow-through (In-Line, Hellertown, Pa.) diffusion cell system was used for the skin permeation studies.
(§3) Diffusion cells were kept at 32° C. with a circulating water bath. Human epidermal skin was arranged in the diffusion cell with stratum corneum (upper layer of skin) facing the donor compartment. The permeation area of the skin was 0.95 cm^2. The data was collected from a human skin donor with three diffusion cells per treatment.
(§4) The receiver solution was HEPES-buffered Hanks' balanced salts with gentamicin containing 40% PEG 400 at a pH of 7.4 or 40% aqueous PEG 400 and flow rate was adjusted to 0.8 mL/h. Each cell was charged with 0.10 mL of the respective drug formulation (donor solution) or 50 μL of gel formulation which was rubbed into the skin for 15 sec with a Teflon coated rod. The formulation was applied to ensure complete coverage. The formulation was applied to ensure complete coverage. Diffusion cells were covered with a stopper or cap for the duration of the study.
Samples were collected into scintillation vials in 3 h increments for either 24, 30, or 42 h. All the samples were stored at 4° C. until extracted. An aliquot (0.5 mL) of the diffusion sample was placed into a silanized HPLC vial and 0.5 mL of acetonitrile was added to the sample, capped and vortexed.
At the end of the experiment, the skin tissue was removed from the diffusion cell, rinsed with nanopure water, and blotted dry with a paper towel. The skin was tape stripped twice using book tape (Scotch™, 3M, St. Paul, Minn.) to remove drug formulation adhering to the tissue surface.

human abdominal skin [2] = experiment: In vitro human skin permeation and skin disposition, flow-through diffusion cells (Example 1); type: in vitro ADME; conditions: for found in the skin disposition (tissue) samples: Example 1; for 36 h skin conc.: Table 14, in propylene glycol; for permeation through the skin: both the PG donor solution and gel formulation
Experimental: Flow through diffusion cells were used for the permeation studies. HEPES-buffered Hanks' balanced salts containing 40% (polyethylene glycol) PEG 400 with gentamicin was used for the receiver compartment. Donor solution was comprised of either 100% propylene glycol (PG) solution or a rubbed in gel formulation. […] Drug accumulation in the skin after a 24 or 36 h diffusion experiment was determined as μmol/g wet tissue weight.
as §1
as §2, with “1” for “One (1)”, “50” for “Fifty (50)”
Two different formulations were used for charging the donor compartment. Drugs were made up in either 100% PG or a gel formulation. For the PG solution, approximately 50-120 mg of the appropriate drug was weighed into a glass silanized culture tube. The gel formulation resulted from the mixing of absolute ethanol, nanopure water, IPM, Carbopol® 980, 0.1 N aqueous sodium hydroxide solution and the respective drug.
Dermatomed skin harvested from abdominoplasty, stored at −20° C., was used for the experiments. A PermeGear flow-through (In-Line, Riegelsville, Pa.) diffusion cell system was used for the skin permeation studies.
as §3, with “Permeation” for “The permeation”, “Data” for “The data”, “three to four” for “three”
as §4, with “Receiver” for “The receiver”, “7.4” for “7.4 or 40% aqueous PEG 400”, “0.050” for “0.10”, “with 0.035 mL” for “50 μL”, “coverage.” for “coverage. The formulation was applied to ensure complete coverage.”, “a” for “a stopper or”
Samples were collected into scintillation vials in 3 h increments for either 24 h or 36 h. All the samples were stored at 4° C. until extracted. An aliquot (0.5 mL) of the diffusion sample was placed into a silanized HPLC vial and 0.5 mL of acetonitrile was added to the sample, capped and vortexed.
At the end of the experiment, the skin tissue was removed from the diffusion cell, rinsed with nanopure water, and blotted dry with a paper towel. The skin was tape stripped twice using book tape (Scotch™, 3M, St. Paul, Minn.) to remove drug formulation adhering to the tissue surface. The area of skin in contact with the drug was cut out, chopped up and placed in a pre-weighed scintillation vial. Ten mL of acetonitrile was added to the vial and drug was extracted from the skin by shaking at room temperature overnight. The following day a 0.1 mL aliquot was removed and diluted with an additional 0.9 mL of acetonitrile. The diluted sample was added to the silanized HPLC vial for analysis.
At the end of the experiment, a 0.01 mL aliquot of the PG donor solution was removed and added to a scintillation vial containing 10 mL of acetonitrile. The vials were vortexed and then sonicated for 15 min. An aliquot of 1 mL was removed and transferred into a silanized HPLC vial for analysis.

[3] = Table 19, gel formulation, CBD from applied prodrug
[4] = Table 19, gel formulation, as applied compound (CBD or intact prodrug)
[5] = Table 19, gel formulation, prodrug applied, as total cannabidiol equivalents
[6] = Table 21, gel formulation, CBD from applied prodrug
[7] = Table 21, gel formulation, as applied compound (CBD or intact prodrug)
[8] = Table 21, gel formulation, prodrug applied, as total cannabidiol equivalents
[9] = in an anhydrous gel formulation
[10] = Table 23, gel formulation, CBD from applied prodrug

Compound	24 h skin conc (human abdominal skin [1]; [3])	24 h cumulative amt (human abdominal skin [1]; [4])	24 h skin conc (human abdominal skin [1]; [4])	Flux (human abdominal skin [1]; [4])	Lag time (human abdominal skin [1]; [4])	24 h cumulative amt (human abdominal skin [1]; [5])	24 h skin conc (human abdominal skin [1]; [5])	Flux (human abdominal skin [1]; [5])	Lag time (human abdominal skin [1]; [5])	Flux enhancement (human abdominal skin [1]; Table 19, gel formulation)	detected in the skin as (human abdominal skin [1]; in gel formulation)	flux compared to cannabidiol (human abdominal skin [1]; in gel formulation)	permeated through the skin as (human abdominal skin [1]; in gel formulation)	total skin concentrations compared to cannabidiol (human abdominal skin [1]; in gel formulation)	24 h skin conc (human abdominal skin [1]; [6])	24 h skin conc (human abdominal skin [1]; [7])	24 h skin conc (human abdominal skin [1]; [8])	found in the skin disposition (tissue) samples (human abdominal skin [2])	permeation through the skin (human abdominal skin [2])	also measured
C=C(C)C1CCC(C)=CC1c1c(O)cc(CCCCC)cc1OC(=O)CN(C)C (centres unmarked) [ALL00148, CBD N,N-dimethylglycinate]	2.4 ± 2.1 µmol/g	8.0 ± 1.8 nmol	20.8 ± 21.1 µmol/g	0.5 ± 0.1 nmol/cm^2/h	7.6 ± 2.1 h	8.0 ± 1.8 nmol	23.2 ± 23.2 µmol/g	0.5 ± 0.1 nmol/cm^2/h	7.6 ± 2.1 h	0.63	mostly intact prodrug and small amounts of cannabidiol	did not increase the flux	intact prodrug only	higher	–	–	–	–	–	lag time compared to cannabidiol (human abdominal skin [1]; in gel formulation): similar
C=C(C)C1CCC(C)=CC1c1c(O)cc(CCCCC)cc1OC(=O)CCN(C)C (centres unmarked) [ALL00150, CBD 3-(dimethylamino)propionate]	–	–	–	–	–	–	–	–	–	–	primarily ALL00150 with a small amount of cannabidiol	–	did not permeate through the skin	higher	7.9 ± 2.3 µmol/g	47.7 ± 3.0 µmol/g	55.6 ± 5.3 µmol/g	–	–	24 h skin conc (human abdominal skin [1]; Table 22, anhydrous gel formulation, CBD from applied prodrug): 1.1 ± 0.8 µmol/g; 24 h skin conc (human abdominal skin [1]; Table 22, anhydrous gel formulation, as applied compound (CBD or intact prodrug)): 5.6 ± 3.1 µmol/g; 24 h skin conc (human abdominal skin [1]; Table 22, anhydrous gel formulation, prodrug applied, as total cannabidiol equivalents): 6.7 ± 3.8 µmol/g; concentrations in the skin, anhydrous gel formulation compared to the ethanol based gel formulation (human abdominal skin [1]; anhydrous gel versus ethanol based gel): much lower; detected in the skin as (human abdominal skin [1]; [9]): ALL00150 and cannabidiol; permeation through the skin (human abdominal skin [1]; [9]): did not permeate through the skin; total skin concentrations compared to cannabidiol (human abdominal skin [1]; [9]): higher
C=C(C)C1CCC(C)=CC1c1c(OC(=O)CCOCC)cc(CCCCC)cc1OC(=O)CCOCC (centres unmarked) [ALL00103]	–	–	–	–	–	–	–	–	–	–	–	–	–	–	–	–	–	Some intact prodrug was found in the skin samples but very little cannabidiol was detected	did not permeate (or were below LOD)	36 h skin conc. (human abdominal skin [2]; as applied compound (CBD or intact prodrug)): 9.7 ± 1.0 µmol/g; 36 h skin conc. (human abdominal skin [2]; prodrug applied, as total CBD equivalents): 9.7 ± 1.0 µmol/g
C=C(C)[C@@H]1CCC(C)=C[C@H]1c1c(O)cc(CCCCC)cc1OC=O [ALL00146, CBD Formate]	0.8 ± 0.1 µmol/g	4.0 ± 0.0 nmol	3.3 ± 0.5 µmol/g	0.3 ± 0.0 nmol/cm^2/h	7.0 ± 0.0 h	12.7 ± 2.3 nmol	4.1 ± 0.4 µmol/g	0.9 ± 0.1 nmol/cm^2/h	8.9 ± 1.1 h	1.09	intact prodrug and cannabidiol; also recorded: small amount of cannabidiol with the remaining being prodrug	did slightly increase the flux; also recorded: didn't increase the flux	–	–	3.7 ± 2.1 µmol/g	16.0 ± 9.8 µmol/g	19.7 ± 11.9 µmol/g	–	–	24 h cumulative amt (human abdominal skin [1]; [3]): 10.7 ± 0.5 nmol; Flux (human abdominal skin [1]; [3]): 0.8 ± 0.1 nmol/cm^2/h; Lag time (human abdominal skin [1]; [3]): 9.1 ± 0.9 h; 24 h cumulative amt (human abdominal skin [1]; [6]): 2.7 ± 1.4 nmol; Flux (human abdominal skin [1]; [6]): 0.2 ± 0.1 nmol/cm^2/h; Lag time (human abdominal skin [1]; [6]): 9.8 ± 3.7 h; 24 h cumulative amt (human abdominal skin [1]; [8]): 2.7 ± 1.4 nmol; Flux (human abdominal skin [1]; [8]): 0.2 ± 0.1 nmol/cm^2/h; Lag time (human abdominal skin [1]; [8]): 9.8 ± 3.7 h; Flux enhancement (human abdominal skin [1]; Table 21, gel formulation): 0.53; 24 h cumulative amt (human abdominal skin [1]; [10]): 5.9 nmol; Flux (human abdominal skin [1]; [10]): 0.26 nmol/cm^2/h; Lag time (human abdominal skin [1]; [10]): 0.4 h
C=C(C)C1CCC(C)=CC1c1c(OC(=O)NCC)cc(CCCCC)cc1OC(=O)NCC (centres unmarked) [ALL00104]	–	–	–	–	–	–	–	–	–	–	–	–	–	–	–	–	–	Some intact prodrug was found in the skin samples but very little cannabidiol was detected	did not permeate (or were below LOD)	–
